Data reported in patent publication US9765092B2, “Tricyclic piperidine compounds” (ACTELION PHARMACEUTICALS LTD, priority 2013, dated 2017).

Target: human TPH1 (Homo sapiens (Human), UniProt P17752)
Test: Biochemical in vitro assay using fluorescence readout (TPH1 inhibition)
Text: Biochemical In Vitro Assay Using Fluorescence Readout
To generate the enzyme, full length human TPH1 is cloned into the plasmid pET20b(+) (Novagen) and expressed in E. coli. The bacterial cells are ruptured by sonication on ice and the lysate is cleared by centrifugation. The resulting protein in the pellet is re-extracted and TPH1 is purified from the obtained lysate by affinity chromatography using a pterin cosubstrate analog immobilized to the resin of the column. The protein is further purified by size exclusion chromatography to remove protein aggregates. The activity of TPH1 is determined by using a fluorescence assay. The enzyme activity assay is carried out at 15° C. with atmosphere oxygen for the duration of 60 minutes in a volume of 64 μl. The reaction is carried out in a 0.1 M Tris-HCl buffer, adjusted to pH 7.6, containing 1 mM DTT, 0.2 mg/mL catalase, 100 μM (±)-6-methyl-5,6,7,8-tetrahydropterine dihydrochloride, 40 μM L-tryptophan, and 40-80 nM of TPH1. The reaction is started by bringing together L-tryptophan with all the other reaction substituents and stopped by quenching with perchloric acid (HClO4). The amount of 5-hydroxy-L-tryptophan produced during the enzymatic reaction is determined by fluorescence readout. Fluorescence, as determined at 540 nm when excited at 300 nm wavelength, increases proportionally to the 5-hydroxy-L-tryptophan formed. Compounds are prepared as 10 mM stock solution in DMSO, then diluted in 384-well plates using DMSO followed by a transfer of the dilutions into the assay plate. Fluorescence is measured for each well and the fluorescence at 540 nm wavelength is compared to the fluorescence of the vehicle in place of compound. Inhibitory activities of example compounds with respect to the TPH1 protein are determined by calculating the IC50 value (the concentration of compound needed to inhibit 50% of the enzyme activity). The calculated IC50 values may fluctuate depending on the daily biochemical assay performance. Fluctuations of this kind are known to those skilled in the art.

[1] = full length human TPH1, 40 μM L-tryptophan, 15° C., 60 minutes, fluorescence at 540 nm, mean if determined several times
[2] = human TPH1, fluorescence readout

Sequence of human TPH1 (P17752 whole entry): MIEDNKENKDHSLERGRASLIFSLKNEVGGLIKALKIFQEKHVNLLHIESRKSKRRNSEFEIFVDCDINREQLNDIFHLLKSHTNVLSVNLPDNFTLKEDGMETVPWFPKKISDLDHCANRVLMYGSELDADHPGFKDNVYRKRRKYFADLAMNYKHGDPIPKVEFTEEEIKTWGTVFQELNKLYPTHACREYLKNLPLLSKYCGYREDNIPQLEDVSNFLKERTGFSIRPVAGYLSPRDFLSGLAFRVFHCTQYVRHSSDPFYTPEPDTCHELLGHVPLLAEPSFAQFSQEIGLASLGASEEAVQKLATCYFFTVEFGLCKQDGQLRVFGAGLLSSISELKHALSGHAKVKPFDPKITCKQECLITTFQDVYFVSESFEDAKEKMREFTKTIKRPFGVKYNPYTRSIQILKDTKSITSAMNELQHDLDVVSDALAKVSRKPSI

SMILES	IC50 [1]	IC50 [2]
Cc1nn2c3c(nc2s1)CCN(C(=O)COc1ccc(NS(=O)(=O)C2CC2)nc1Cl)C3c1ccc(Cl)cc1F (stereo not shown) [Example 1.4.16, N-(6-Chloro-5-(2-(5-(4-chloro-2-fluorophenyl)-2-methyl-7,8-dihydro-[1,3,4]thiadiazolo[2′,3′:2,3]imidazo[4,5-c]pyridin-6(5H)-yl)-2-oxoethoxy)pyridin-2-yl)-cyclopropanesulfonamide]	7 nM	–
Cc1nn2c3c(nc2s1)CCN(C(=O)COc1ccc(N2CCCC2=O)nc1Cl)C3c1ccc(Cl)cc1F (stereo not shown) [Example 1.4.17, 1-(6-Chloro-5-(2-(5-(4-chloro-2-fluorophenyl)-2-methyl-7,8-dihydro-[1,3,4]thiadiazolo[2′,3′:2,3]imidazo[4,5-c]pyridin-6(5H)-yl)-2-oxoethoxy)pyridin-2-yl)pyrrolidin-2-one]	2 nM	–
Cc1nn2c3c(nc2s1)CCN(C(=O)COc1ccc(N2CC(F)(F)C2)nc1Cl)C3c1ccc(Cl)cc1F (stereo not shown) [Example 1.4.18, 1-(5-(4-Chloro-2-fluorophenyl)-2-methyl-7,8-dihydro-[1,3,4]thiadiazolo[2′,3′:2,3]imidazo[4,5-c]pyridin-6(5H)-yl)-2-((2-chloro-6-(3,3-difluoroazetidin-1-yl)-pyridin-3-yl)oxy)ethanone]	3 nM	–
Cc1nn2c3c(nc2s1)CCN(C(=O)COc1ccc(C(N)=O)nc1Cl)C3c1ccc(Cl)cc1F (stereo not shown) [Example 1.4.19, 6-chloro-5-(2-(5-(4-chloro-2-fluorophenyl)-2-methyl-7,8-dihydro-[1,3,4]thiadiazolo[2′,3′:2,3]imidazo[4,5-c]pyridin-6(5H)-yl)-2-oxoethoxy)picolinamide]	–	5 nM
Cc1nn2c3c(nc2s1)CCN(C(=O)COc1ccc(N2C[C@@H](C)C[C@H](C)C2)nc1Cl)C3c1ccc(Cl)cc1F (stereo partly drawn) [Example 1.4.20, 1-(5-(4-Chloro-2-fluorophenyl)-2-methyl-7,8-dihydro-[1,3,4]thiadiazolo[2′,3′:2,3]imidazo[4,5-c]pyridin-6(5H)-yl)-2-((2-chloro-6-((3S,5S)-3,5-dimethylpipe-ridin-1-yl)pyridin-3-yl)oxy)ethanone]	3 nM	–
CNC(=O)c1ccc(OCC(=O)N2CCc3nc4sc(C)nn4c3C2c2ccc(Cl)cc2F)c(Cl)n1 (stereo not shown) [Example 1.4.21, 6-chloro-5-(2-(5-(4-chloro-2-fluorophenyl)-2-methyl-7,8-dihydro-[1,3,4]thiadiazolo[2′,3′:2,3]imidazo[4,5-c]pyridin-6(5H)-yl)-2-oxoethoxy)-N-methylpicolinamide]	–	5 nM
Cc1nn2c3c(nc2s1)CCN(C(=O)COc1ccc(N)nc1Cl)C3c1ccc(Cl)cc1F (stereo not shown) [Example 1.4.22, 2-((6-amino-2-chloropyridin-3-yl)oxy)-1-(5-(4-chloro-2-fluorophenyl)-2-methyl-7,8-dihydro-[1,3,4]thiadiazolo[2′,3′:2,3]imidazo[4,5-c]pyridin-6(5H)-yl)-ethanone]	10 nM	–
Cc1nn2c3c(nc2s1)CCN(C(=O)COc1ccc(C(=O)NCC#N)nc1Cl)C3c1ccc(Cl)cc1F (stereo not shown) [Example 1.4.23, 6-Chloro-5-(2-(5-(4-chloro-2-fluorophenyl)-2-methyl-7,8-dihydro-[1,3,4]thiadiazolo[2′,3′:2,3]imidazo[4,5-c]pyridin-6(5H)-yl)-2-oxoethoxy)-N-(cyano-methyl)picolinamide]	247 nM	–
Cc1nn2c3c(nc2s1)CCN(C(=O)COc1ccc(C#N)cc1Cl)C3c1ccc(Cl)cc1F (stereo not shown) [Example 1.4.24, 3-chloro-4-(2-(5-(4-chloro-2-fluorophenyl)-2-methyl-7,8-dihydro-[1,3,4]thiadiazolo[2′,3′:2,3]imidazo[4,5-c]pyridin-6(5H)-yl)-2-oxoethoxy)benzonitrile]	–	11 nM
Cc1nn2c3c(nc2s1)CCN(C(=O)COc1ccc(C(=O)NO)nc1Cl)C3c1ccc(Cl)cc1F (stereo not shown) [Example 1.4.25, 6-Chloro-5-(2-(5-(4-chloro-2-fluorophenyl)-2-methyl-7,8-dihydro-[1,3,4]thiadiazolo[2′,3′:2,3]imidazo[4,5-c]pyridin-6(5H)-yl)-2-oxoethoxy)-N-hydroxy-picolinamide]	14 nM	–
Cc1nn2c3c(nc2s1)CCN(C(=O)COc1ccc(C(N)=O)cc1Cl)C3c1ccc(Cl)cc1F (stereo not shown) [Example 1.4.26, 3-Chloro-4-(2-(5-(4-chloro-2-fluorophenyl)-2-methyl-7,8-dihydro-[1,3,4]thiadiazolo[2′,3′:2,3]imidazo[4,5-c]pyridin-6(5H)-yl)-2-oxoethoxy)benzamide]	10 nM	–
CNc1ccc(OCC(=O)N2CCc3nc4sc(C)nn4c3C2c2ccc(Cl)cc2F)c(Cl)n1 (stereo not shown) [Example 1.4.27, 1-(5-(4-Chloro-2-fluorophenyl)-2-methyl-7,8-dihydro-[1,3,4]thiadiazolo[2′,3′:2,3]imidazo[4,5-c]pyridin-6(5H)-yl)-2-((2-chloro-6-(methylamino)pyridin-3-yl)oxy)ethanone]	6 nM	–
Cc1nn2c3c(nc2s1)CCN(C(=O)COc1ccc(C2CC2)nc1Cl)C3c1ccc(Cl)cc1F (stereo not shown) [Example 1.4.28, 1-(5-(4-Chloro-2-fluorophenyl)-2-methyl-7,8-dihydro-[1,3,4]thiadiazolo[2′,3′:2,3]imidazo[4,5-c]pyridin-6(5H)-yl)-2-((2-chloro-6-cyclopropylpyridin-3-yl)oxy)-ethanone]	6 nM	–
Cc1nn2c3c(nc2s1)CCN(C(=O)COc1ccc(N2CC(F)(F)C2)cc1Cl)C3c1ccc(Cl)cc1F (stereo not shown) [Example 1.4.29, 1-(5-(4-Chloro-2-fluorophenyl)-2-methyl-7,8-dihydro-[1,3,4]thiadiazolo[2′,3′:2,3]imidazo[4,5-c]pyridin-6(5H)-yl)-2-(2-chloro-4-(3,3-difluoroazetidin-1-yl)phe-noxy)ethanone]	6 nM	–
Cc1nn2c3c(nc2s1)CCN(C(=O)COc1ccc(NS(=O)(=O)C2CC2)cc1Cl)C3c1ccc(Cl)cc1F (stereo not shown) [Example 1.4.30, N-(3-Chloro-4-(2-(5-(4-chloro-2-fluorophenyl)-2-methyl-7,8-dihydro-[1,3,4]thiadiazolo[2′,3′:2,3]imidazo[4,5-c]pyridin-6(5H)-yl)-2-oxoethoxy)phenyl)cyclo-propanesulfonamide]	10 nM	–
CCn1nc(C(=O)OC)cc1OCC(=O)N1CCc2nc3sc(C)nn3c2C1c1ccc(Cl)cc1F (stereo not shown) [Example 1.4.31, Methyl 5-(2-(5-(4-chloro-2-fluorophenyl)-2-methyl-7,8-dihydro-[1,3,4]thiadiazolo[2′,3′:2,3]imidazo[4,5-c]pyridin-6(5H)-yl)-2-oxoethoxy)-1-ethyl-1H-pyrazole-3-carboxylate]	–	40 nM
Cc1nn2c3c(nc2s1)CCN(C(=O)COc1ccc(N2CCC(F)(F)CC2)nc1Cl)C3c1ccc(Cl)cc1F (stereo not shown) [Example 1.4.32, 1-(5-(4-Chloro-2-fluorophenyl)-2-methyl-7,8-dihydro-[1,3,4]thiadiazolo[2′,3′:2,3]imidazo[4,5-c]pyridin-6(5H)-yl)-2-((2-chloro-6-(4,4-difluoropiperidin-1-yl)pyridin-3-yl)oxy)ethanone]	3 nM	–
Cc1nn2c3c(nc2s1)CCN(C(=O)COc1ccc(N2CC4CC2CO4)nc1Cl)C3c1ccc(Cl)cc1F (stereo not shown) [Example 1.4.33, 2-((6-(2-Oxa-5-azabicyclo[2.2.1]heptan-5-yl)-2-chloropyridin-3-yl)oxy)-1-(5-(4-chloro-2-fluorophenyl)-2-methyl-7,8-dihydro-[1,3,4]thiadiazolo[2′,3′:2,3]imidazo[4,5-c]pyridin-6(5H)-yl)ethanone]	2 nM	–
Cc1nn2c3c(nc2s1)CCN(C(=O)COc1ccc(C2CC2)cc1Cl)C3c1ccc(Cl)cc1F (stereo not shown) [Example 1.4.34, 1-(5-(4-Chloro-2-fluorophenyl)-2-methyl-7,8-dihydro-[1,3,4]thiadiazolo[2′,3′:2,3]imidazo[4,5-c]pyridin-6(5H)-yl)-2-(2-chloro-4-cyclopropylphenoxy)-ethanone]	4 nM	–
Cc1nn2c3c(nc2s1)CCN(C(=O)COc1ccc(N2CCNCC2=O)nc1Cl)C3c1ccc(Cl)cc1F (stereo not shown) [Example 1.4.35, 1-(6-chloro-5-(2-(5-(4-chloro-2-fluorophenyl)-2-methyl-7,8-dihydro-[1,3,4]thiadiazolo[2′,3′:2,3]imidazo[4,5-c]pyridin-6(5H)-yl)-2-oxoethoxy)pyridin-2-yl)piperazin-2-one]	6 nM	–
Cc1nn2c3c(nc2s1)CCN(C(=O)COc1cnc(C(F)(F)F)nc1Cl)C3c1ccc(Cl)cc1F (stereo not shown) [Example 1.4.36, 2-((4-chloro-2-(trifluoromethyl)pyrimidin-5-yl)oxy)-1-(5-(4-chloro-2-fluorophenyl)-2-methyl-7,8-dihydro-[1,3,4]thiadiazolo[2′,3′:2,3]imidazo[4,5-c]pyridin-6(5H)-yl)ethanone]	–	38 nM
Cc1nn2c3c(nc2s1)CCN(C(=O)COc1ccc(N2CCC(F)(F)C2)nc1Cl)C3c1ccc(Cl)cc1F (stereo not shown) [Example 1.4.37, 1-(5-(4-Chloro-2-fluorophenyl)-2-methyl-7,8-dihydro-[1,3,4]thiadiazolo[2′,3′:2,3]imidazo[4,5-c]pyridin-6(5H)-yl)-2-((2-chloro-6-(3,3-difluoropyrrolidin-1-yl)pyridin-3-yl)oxy)ethanone]	3 nM	–
